# Where a name gives a salt, the structure may show the parent alone.
# Assays:
# E. coli 1346 = assay: Antibacterial activity of the products per se, serial dilution method in liquid medium (Test E); format: cell-based; conditions: product per se; for MIC E. coli 1346 (E): test E; for MIC E. coli 1346: Table 3, liquid medium
# Description: The antibacterial activity of the products per se is illustrated on the basis of Table 3 hereinafter, the minimum inhibitory concentration […] in vitro against E. coli 1346 being determined using the serial dilution method in liquid medium: […]
# [1] = tested on: Citrobacter freundii 1982; assay: MIC in vitro of a 1:4 combination of ceftriaxone with a compound of formula I (Test D); format: cell-based; conditions: for MIC C. freundii 1982 (D): test D; for MIC C. freundii 1982: Table 2
# Description: The minimum inhibitory concentration in vitro ([…]) of a 1:4 combination of ceftriaxone with a compound of formula I against Citrobacter freundii 1982 was measured and compiled in Table 2 hereinafter.
# [2] = Table 4, 1:4 combination of ceftriaxone with the compound
# [3] = Table 5, particularly preferred products
# [4] = Table 5, particularly preferred products, 1:4 combination with ceftriaxone
# [5] = 1:4 combination of ceftriaxone with the compound
MIC E. coli 1346 (E) (E. coli 1346; Table 4) [mg/L],"MIC C. freundii 1982 (D) [1, 2] [mg/L]",Compound,further results
> 32,0.5,"C=CC1=C(C(=O)O)N2C(=O)[C@@H]3[C@H]2[C@H](C1)CN3C(=O)Nc1ccc(C(N)=O)cc1 [46(b), (1aS,3aR,6bR)-2-(4-Carbamoyl-phenylcarbamoyl)-1-oxo-5-vinyl-1a,2,3,3a,4,6b-hexahydro-1H-2,6a-diazacyclobut[cd]indene-6-carboxylic acid sodium salt]",
,,"NC(=O)OCC1=C(C(=O)O)N2C(=O)[C@@H]3[C@H]2[C@H](C1)CN3C(=O)Nc1ccc(C(N)=O)cc1 [27(b), (1aS,3aR,6bR)-5-Carbamoyloxymethyl-2-(4-carbamoylphenylcarbamoyl)-1-oxo-1a,2,3,3a,4,6b-hexahydro-1H-2,6a-diazacyclobut[cd]indene-6-carboxylic acid sodium salt]","MIC E. coli 1346 (E) (E. coli 1346; [3]): > 32 mg/L; MIC C. freundii 1982 (D) [1, 4]: ≤ 0.06 mg/L"
16,4,"CC(=O)N1C[C@H]2CC(SCC(N)=O)=C(C(=O)O)N3C(=O)[C@@H]1[C@@H]23 [3(ak), (1 aS,3aR,6bR)-2-Acetyl-5-carbamoylmethylsulphanyl-1-oxo-1a,2,3,3a,4,6b-hexahydro-1H-2,6a-diazacyclobut[cd]indene-6-carboxylic acid sodium salt]",
8,1,"Cc1nnc(SCC2=C(C(=O)O)N3C(=O)[C@@H]4[C@H]3[C@@H](CN4C(=O)CSc3nnnn3C)O2)s1 [Example 34, (1aS,3aR,6bS)-2-(1-Methyl-1H-tetrazol-5-ylsulphanylacetyl)-5-(5-methyl-1,3,4-thiadiazol-2-ylsulphanylmethyl)-1-oxo-1,1a,2,3,3a,6b-hexahydro-4-oxa-2,6a-diazacyclobut[cd]indene-6-carboxylic acid]",
0.5,2,"CC(=O)Nc1nnc(SCC2=C(C(=O)O)N3C(=O)[C@@H]4[C@H]3[C@H](C2)CN4C(C)=O)s1 [19(j), (1aS,3aR,6bR)-2-Acetyl-5-(5-acetylamino-1,3,4-thiadiazol-2-ylsulphanylmethyl)-1-oxo-1a,2,3,3a,4,6b-hexahydro-1H-2,6a-diazacyclobut[cd]indene-6-carboxylic acid sodium salt]",
16,0.25,"[N-]=[N+]=NCC1=C(C(=O)O)N2C(=O)[C@@H]3[C@H]2[C@H](C1)CN3C(=O)Nc1ccc(O)cc1 [Example 82, (1aS,3aR,6bR)-5-Azidomethyl-2-(4-hydroxy-phenylcarbamoyl)-1-oxo-1a,2,3,3a,4,6b-hexahydro-1H-2,6a-diazacyclobut[cd]indene-6-carboxylic acid sodium salt]",
4,8,"CNC(=O)Cn1nnnc1SCC1=C(C(=O)O)N2C(=O)[C@@H]3[C@H]2[C@@H](CN3C(C)=O)O1 [32(f), (1aS,3aR, 6bS)-2-Acetyl-5-(1-methyl-carbamoylmethyl-1H-tetrazol-5-ylsulphanylmethyl)-1-oxo-1,1a,2,3,3a,6b-hexahydro-4-oxa-2,6a-diazacyclobut[cd]indene-6-carboxylic acid sodium salt]",
,,"CS(=O)(=O)OC1=C(C(=O)O)N2C(=O)[C@@H]3[C@H]2[C@H](C1)CN3C(=O)NCc1ccc(S(N)(=O)=O)cc1 [9(h), (1aS,3aR,6bR)-5-Methylsulphonyloxy-1-oxo-2-(4-sulphamoylbenzylcarbamoyl)-1a,2,3,3a,4,6b-hexahydro-1H-2,6a-diazacyclobut[cd]indene-6-carboxylic acid sodium salt]","MIC E. coli 1346 (E. coli 1346): 32 mg/L; MIC C. freundii 1982 [1, 5]: 0.5 mg/L"
,,"NC(=O)OCC1=C(C(=O)O)N2C(=O)[C@@H]3[C@H]2[C@H](C1)CN3C(=O)C(F)(F)F [58(d), (1aS,3aR,6bR)-5-Carbamoyloxymethyl-1-oxo-2-trifluoroacetyl-1a,2,3,3a,4,6b-hexahydro-1H-2,6a-diazacyclobut[cd]indene-6-carboxylic acid sodium salt]","MIC E. coli 1346 (E) (E. coli 1346; [3]): 1 mg/L; MIC C. freundii 1982 (D) [1, 4]: 0.5 mg/L"
,,"CO/N=C(\C(=O)N1C[C@H]2CC(Sc3nnnn3C)=C(C(=O)O)N3C(=O)[C@@H]1[C@@H]23)c1csc(N)n1 [Example 7, (Z)-(1aS,3aR,6bR)-2-[(2-Amino-thiazol-4-yl)-methoxyiminoacetyl]-1-oxo-5-(1-methyl-1H-tetrazol-5-ylsulphanyl)-1a,2,3,3a,4,6b-hexahydro-1H-2,6a-diazacyclobut[cd]indene-6-carboxylic acid sodium salt]","MIC E. coli 1346 (E. coli 1346): 64 mg/L; MIC C. freundii 1982 [1, 5]: 16 mg/L"
2,2,"CC(=O)N1C[C@H]2OC(CSc3nnc(N)s3)=C(C(=O)O)N3C(=O)[C@@H]1[C@@H]23 [Example 33, (1aS,3aR,6bS)-2-Acetyl-5-(5-amino-1,3,4-thiadiazol-2-ylsulphanylmethyl)-1-oxo-1,1a,2,3,3a,6b-hexahydro-4-oxa-2,6a-diazacyclobut[cd]indene-6-carboxylicacid sodium salt]",
4,8,"O=C(O)C1=C(CSc2nc(-c3cccnc3)cs2)C[C@@H]2CN(C(=O)C(F)(F)F)[C@@H]3C(=O)N1[C@H]23 [67(b), (1aS,3aR,6bR)-1-Oxo-5-(4-pyridin-3-yl-thiazol-2-ylsulphanylmethyl)-2-trifluoroacetyl-la,2,3,3a,4,6b-hexahydro-1H-2,6a-diazacyclobut[cd]indene-6-carboxylic acid sodium salt]",
> 32,128,"O=CN1C[C@H]2OC(CSc3nnnn3CC(=O)NOC(c3ccccc3)(c3ccccc3)c3ccccc3)=C(C(=O)O)N3C(=O)[C@@H]1[C@@H]23 [38(d), (1aS,3aR,6bS)-2-Formyl-1-oxo-5-(1-(trityloxycarbamoylmethyl)-1H-tetrazol-5-ylsulphanylmethyl)-1,1a,2,3,3a,6b-hexahydro-4-oxa-2,6a-diazacyclobut[cd]indene-6-carboxylic acid sodium salt]",
,,"CS(=O)(=O)OC1=C(C(=O)O)N2C(=O)[C@@H]3[C@H]2[C@H](C1)CN3C(=O)NCc1cccs1 [9(c), (1aS,3aR,6bR)-5-Methylsulphonyloxy-2-(thien-2-ylmethylcarbamoyl)-1-oxo-1a,2,3,3a,4,6b-hexahydro-1H-2,6a-diazacyclobut[cd]indene-6-carboxylic acid sodium salt]","MIC E. coli 1346 (E. coli 1346): 8 mg/L; MIC C. freundii 1982 [1, 5]: 1 mg/L"
,,"Cn1nnnc1SCC(=O)N1C[C@H]2CC(OS(C)(=O)=O)=C(C(=O)O)N3C(=O)[C@@H]1[C@@H]23 [11(b), (1aS,3aR,6bR)-5-Methylsulphonyloxy-2-(1-methyl-1H-tetrazol-5-ylsulphanylacetyl)-1-oxo-1a,2,3,3a,4,6b-hexahydro-1H-2,6a-diazacyclobut[cd]indene-6-carboxylic acid sodium salt]","MIC E. coli 1346 (E. coli 1346): 16 mg/L; MIC C. freundii 1982 [1, 5]: 0.5 mg/L"
4,32,"CC(=O)N1C[C@H]2OC(CSc3cc(C)nc4nc(C(N)=O)nn34)=C(C(=O)O)N3C(=O)[C@@H]1[C@@H]23 [32(c), (1aS,3aR,6bS)-2-Acetyl-5-(2-carbamoyl-S-methyl[1,2,4]-triazolo[1,5-a]pyrimidin-7-ylsulphanylmethyl)-1-oxo-1,1a,2,3,3a,6b-hexahydro-4-oxa-2,6a-diazacyclobut[cd]indene-6-carboxylic acid sodium salt]",
